Data as given in article PMC2628613 (Diabetes, 2009).

Legend:
purified HLA-A2 = tested on: purified HLA-A2; parameters: species or system human; conditions: >50, 20–50, <20% binding at 10^−6 mol/l = high, intermediate, low binders
PBMCs = type: cell-based, human

Substance	Binding to HLA-A2 (in words) (purified HLA-A2)	Frequencies of recognition, C (PBMCs)	Frequencies of recognition, Control subjects (PBMCs)	Frequencies of recognition, D (PBMCs)	Frequencies of recognition, L (PBMCs)	Frequencies of recognition, Patients (PBMCs)	Frequencies of recognition, R (PBMCs)	Responses (stimulation score), C (PBMCs)	Responses (stimulation score), Control subjects (PBMCs)	Responses (stimulation score), L (PBMCs)	Responses (stimulation score), Patients (PBMCs)	Responses (stimulation score), R (PBMCs)	Recognized in % of patients (PBMCs)	Recognized in % of recent-onset patients (PBMCs)	Responses (stimulation score), D (PBMCs)
RLLPLLALL [6–14]	high binders	0/4	0/6	0/2	1/4	5/18	4/14	4.7 (3.9–7.2)	4.7 (3.9–7.2)	28.9 (21.1–51.1)	30.6 (7.8–144)	30.6 (7.8–144)	–	–	–
RLLPLLALLAL [6–16]	high binders	0/8	0/12	0/4	2/4	9/20	7/16	0 (0–9.5)	0 (0–9.5)	12.2 (10–54.5)	7.3 (0–111.7)	5 (0–111.7)	> 40%	at least 30%	0 (0–0)
EWRFDSRLA [Nef 182–189, reference compound]	–	–	0/3	–	–	0/8	–	–	0 (0–0)	–	1 (0–35)	–	–	–	–
AAVDLSHFL [Nef 83–91, reference compound]	–	–	0/4	–	–	0/12	–	–	0 (0–5)	–	3 (0–20)	–	–	–	–
Peptide 1–8: human preproinsulin leader sequence peptide, residues 1–8, MALWMRLL	no significant binding	–	–	–	–	–	–	–	–	–	–	–	–	–	–
ALWGPDPAAA [15–24]	high binders	0/4	0/6	0/2	1/4	8/17	7/13	0 (0–0)	0 (0–0)	12.8 (2.4–32.2)	12.2 (0–52.8)	8.7 (0–52.8)	> 40%	> 50%	–
ELRSRYWAI [NP 380–388, reference compound]	–	–	2/7	–	–	7/13	–	–	5 (2–131)	–	8 (0–119)	–	–	–	–
